The values below are quoted from earlier work in patent US6733793B2, “Oral composition with insulin-like activities and methods of use” (MetaProteomics, LLC, priority 2002, dated 2004).

The test system of series [1] is bovine papilloma virus DNA-tranfected C3H/10T1/2 cells. Conditions: in vitro, bovine papilloma virus DNA-transfected C3H/10T1/2 cells.
The conditions of series [2]: rats, inhaled.

Molecules are shown by their SMILES.

For `O=S(=O)([O-])[O-].[O]=[V+2]` [Vanadyl sulfate], the “Chromosomal damage and mitotic recombination” value in the series with fruit fly is “induce chromosomal damage and mitotic recombination”. For the same molecule, in series [1], the Tumor promotion activity entry is “possess tumor promotion activity”. Besides, the Pulmonary inflammation result in series [2] was “induce pulmonary inflammation”.
